Measured values taken from the NIST ThermoML archive (doi:10.1021/je025657+).
“And” between values parts separate entries of the source, which are not always exact repeats. Identical values can stand only once. ± gives the expanded uncertainty stated by the source.

## COC(F)(F)C(F)(F)F [methyl pentafluoroethyl ether]
360 K, 2003.3 kPa, Liquid
  mass density: 1056.42 ± 0.49 kg/m3
360 K, 2053.3 kPa, Liquid
  mass density: 1055.56 ± 0.49 kg/m3
360 K, 2463 kPa, Liquid
  mass density: 1063.09 ± 0.52 kg/m3
360 K, 2984.8 kPa, Liquid
  mass density: 1070.14 ± 0.55 kg/m3
360 K, 3048.1 kPa, Liquid
  mass density: 1069.38 ± 0.55 kg/m3
360 K, 3506.1 kPa, Liquid
  mass density: 1076.76 ± 0.58 kg/m3
360 K, 4021.5 kPa, Liquid
  mass density: 1082.91 ± 0.62 kg/m3
360 K, 4078.7 kPa, Liquid
  mass density: 1081.81 ± 0.61 kg/m3
360 K, 4467.5 kPa, Liquid
  mass density: 1087.96 ± 0.64 kg/m3
360 K, 5021.2 kPa, Liquid
  mass density: 1093.94 ± 0.69 kg/m3
360 K, 5093.9 kPa, Liquid
  mass density: 1092.92 ± 0.69 kg/m3
360 K, 5527.2 kPa, Liquid
  mass density: 1099.14 ± 0.73 kg/m3
360 K, 5980.2 kPa, Liquid
  mass density: 1103.61 ± 0.76 kg/m3
360 K, 6147.8 kPa, Liquid
  mass density: 1103.45 ± 0.77 kg/m3
360 K, 6519.9 kPa, Liquid
  mass density: 1108.71 ± 0.81 kg/m3
360 K, 6997.3 kPa, Liquid
  mass density: 1113.07 ± 0.85 kg/m3
360 K, 7245.1 kPa, Liquid
  mass density: 1113.38 ± 0.86 kg/m3
360 K, Gas
  mass density: 77.81 ± 0.25 kg/m3
360 K, Liquid
  mass density: 1040.97 ± 0.43 kg/m3 and 1042.15 ± 0.43 kg/m3 and 1042.21 ± 0.43 kg/m3
370 K, 71.6 kPa, Gas
  mass density: 3.44 ± 0.29 kg/m3
370 K, 105.5 kPa, Gas
  mass density: 5.15 ± 0.29 kg/m3
370 K, 120.9 kPa, Gas
  mass density: 6.04 ± 0.29 kg/m3
370 K, 154.8 kPa, Gas
  mass density: 7.64 ± 0.3 kg/m3
370 K, 176.6 kPa, Gas
  mass density: 8.92 ± 0.3 kg/m3
370 K, 226.2 kPa, Gas
  mass density: 11.41 ± 0.31 kg/m3
370 K, 256.7 kPa, Gas
  mass density: 13.19 ± 0.31 kg/m3
370 K, 328.5 kPa, Gas
  mass density: 16.95 ± 0.32 kg/m3
370 K, 370 kPa, Gas
  mass density: 19.53 ± 0.33 kg/m3
370 K, 471.8 kPa, Gas
  mass density: 25.21 ± 0.34 kg/m3
370 K, 527.2 kPa, Gas
  mass density: 28.67 ± 0.35 kg/m3
370 K, 666.8 kPa, Gas
  mass density: 37.39 ± 0.38 kg/m3
370 K, 737.9 kPa, Gas
  mass density: 42.35 ± 0.4 kg/m3
370 K, 920.6 kPa, Gas
  mass density: 55.26 ± 0.44 kg/m3
370 K, 1005.3 kPa, Gas
  mass density: 62.34 ± 0.47 kg/m3
370 K, 1205.2 kPa, Gas
  mass density: 80.41 ± 0.53 kg/m3
370 K, 1224.5 kPa, Gas
  mass density: 81.87 ± 0.54 kg/m3
370 K, 1277.5 kPa, Gas
  mass density: 87.49 ± 0.56 kg/m3
370 K, 1278.1 kPa, Gas
  mass density: 88.01 ± 0.57 kg/m3
370 K, 1404.3 kPa, Liquid
  mass density: 992.2 ± 0.35 kg/m3
370 K, 1431.7 kPa, Liquid
  mass density: 992.85 ± 0.35 kg/m3
370 K, 1520 kPa, Liquid
  mass density: 995.4 ± 0.34 kg/m3
370 K, 1998.7 kPa, Liquid
  mass density: 1006.05 ± 0.36 kg/m3
370 K, 2031.8 kPa, Liquid
  mass density: 1006.03 ± 0.36 kg/m3
370 K, 2519.7 kPa, Liquid
  mass density: 1016.39 ± 0.38 kg/m3
370 K, 3015.7 kPa, Liquid
  mass density: 1025.26 ± 0.41 kg/m3
370 K, 3042 kPa, Liquid
  mass density: 1024.99 ± 0.41 kg/m3
370 K, 3496.9 kPa, Liquid
  mass density: 1033.2 ± 0.44 kg/m3
370 K, 4012.1 kPa, Liquid
  mass density: 1041.13 ± 0.47 kg/m3
370 K, 4077.7 kPa, Liquid
  mass density: 1041.14 ± 0.47 kg/m3
370 K, 4515.8 kPa, Liquid
  mass density: 1048.28 ± 0.5 kg/m3
370 K, 5031.9 kPa, Liquid
  mass density: 1055.14 ± 0.53 kg/m3
370 K, 5127.4 kPa, Liquid
  mass density: 1055.31 ± 0.53 kg/m3
370 K, 5527.5 kPa, Liquid
  mass density: 1061.36 ± 0.56 kg/m3
370 K, 5982.5 kPa, Liquid
  mass density: 1066.79 ± 0.59 kg/m3
370 K, 6112.9 kPa, Liquid
  mass density: 1067.19 ± 0.59 kg/m3
370 K, 6526.3 kPa, Liquid
  mass density: 1072.95 ± 0.63 kg/m3
370 K, 6886.1 kPa, Liquid
  mass density: 1076.82 ± 0.65 kg/m3
370 K, 7213.4 kPa, Liquid
  mass density: 1079.13 ± 0.67 kg/m3
370 K, Gas
  mass density: 101.33 ± 0.29 kg/m3
370 K, Liquid
  mass density: 991.98 ± 0.35 kg/m3 and 992.32 ± 0.35 kg/m3 and 992.42 ± 0.35 kg/m3
380 K, 74.8 kPa, Gas
  mass density: 3.57 ± 0.29 kg/m3
380 K, 110.1 kPa, Gas
  mass density: 5.3 ± 0.29 kg/m3
380 K, 161.5 kPa, Gas
  mass density: 7.87 ± 0.3 kg/m3
380 K, 235.9 kPa, Gas
  mass density: 11.67 ± 0.31 kg/m3
380 K, 268.9 kPa, Gas
  mass density: 13.32 ± 0.31 kg/m3
380 K, 342.4 kPa, Gas
  mass density: 17.25 ± 0.32 kg/m3
380 K, 408.5 kPa, Gas
  mass density: 20.83 ± 0.33 kg/m3
380 K, 492.2 kPa, Gas
  mass density: 25.55 ± 0.35 kg/m3
380 K, 502.4 kPa, Gas
  mass density: 26.12 ± 0.35 kg/m3
380 K, 602.7 kPa, Gas
  mass density: 31.98 ± 0.36 kg/m3
380 K, 697.5 kPa, Gas
  mass density: 37.81 ± 0.38 kg/m3
380 K, 703.9 kPa, Gas
  mass density: 38.16 ± 0.38 kg/m3
380 K, 804.6 kPa, Gas
  mass density: 44.65 ± 0.41 kg/m3
380 K, 899.8 kPa, Gas
  mass density: 51.1 ± 0.43 kg/m3
380 K, 969.2 kPa, Gas
  mass density: 56.06 ± 0.45 kg/m3
380 K, 1019.1 kPa, Gas
  mass density: 59.71 ± 0.46 kg/m3
380 K, 1101.8 kPa, Gas
  mass density: 66.08 ± 0.49 kg/m3
380 K, 1212.9 kPa, Gas
  mass density: 75.17 ± 0.52 kg/m3
380 K, 1295.3 kPa, Gas
  mass density: 82.53 ± 0.55 kg/m3
380 K, 1299.2 kPa, Gas
  mass density: 82.86 ± 0.55 kg/m3
380 K, 1417.2 kPa, Gas
  mass density: 94.38 ± 0.59 kg/m3
380 K, 1486.5 kPa, Gas
  mass density: 101.79 ± 0.62 kg/m3
380 K, 1486.8 kPa, Gas
  mass density: 101.8 ± 0.62 kg/m3
380 K, 1499.7 kPa, Gas
  mass density: 103.34 ± 0.63 kg/m3
380 K, 1530.9 kPa, Gas
  mass density: 107.11 ± 0.64 kg/m3
380 K, 1744.3 kPa, Liquid
  mass density: 935.88 ± 0.5 kg/m3
380 K, 1763.3 kPa, Liquid
  mass density: 936.59 ± 0.5 kg/m3
380 K, 1785 kPa, Liquid
  mass density: 937.35 ± 0.5 kg/m3
380 K, 1807.8 kPa, Liquid
  mass density: 938.21 ± 0.5 kg/m3
380 K, 2057.3 kPa, Liquid
  mass density: 946.7 ± 0.47 kg/m3
380 K, 2481.3 kPa, Liquid
  mass density: 959.56 ± 0.44 kg/m3
380 K, 2986.2 kPa, Liquid
  mass density: 972.71 ± 0.41 kg/m3
380 K, 3036.6 kPa, Liquid
  mass density: 973.66 ± 0.41 kg/m3
380 K, 3496.2 kPa, Liquid
  mass density: 984.34 ± 0.38 kg/m3
380 K, 4004.9 kPa, Liquid
  mass density: 994.7 ± 0.35 kg/m3
380 K, 4035.7 kPa, Liquid
  mass density: 994.89 ± 0.35 kg/m3
380 K, 4514.5 kPa, Liquid
  mass density: 1004.14 ± 0.35 kg/m3
380 K, 4998.2 kPa, Liquid
  mass density: 1012.37 ± 0.38 kg/m3
380 K, 5093.2 kPa, Liquid
  mass density: 1013.21 ± 0.38 kg/m3
380 K, 5510.3 kPa, Liquid
  mass density: 1020.45 ± 0.41 kg/m3
380 K, 6032.6 kPa, Liquid
  mass density: 1028.11 ± 0.44 kg/m3
380 K, 6103.7 kPa, Liquid
  mass density: 1028.48 ± 0.44 kg/m3
380 K, 6514.1 kPa, Liquid
  mass density: 1034.76 ± 0.47 kg/m3
380 K, 7011.9 kPa, Liquid
  mass density: 1041.19 ± 0.5 kg/m3
380 K, 7127.1 kPa, Liquid
  mass density: 1041.96 ± 0.5 kg/m3
380 K, Gas
  mass density: 133.96 ± 0.34 kg/m3
380 K, Liquid
  mass density: 934.86 ± 0.48 kg/m3 and 935.87 ± 0.48 kg/m3
